# Measured values published in US20030203963A1, “Antimicrobial agent” (priority 2001, published 2003).
# What was measured:
# Ps. fluorescens 327 = experiment: Chicken soup trial at 8° C.; format: cell-based, Pseudomonas fluorescens; details: chicken soup at 8° C., TCSM010521, APP215
# From the text: (§1) A local supermarket brand of cream of chicken soup was used as a model food system. 600 g packs were purchased from the local supermarket. This was a ‘fresh home-made type’ of soup that was stored in the chill cabinet, with a short shelf life. It was chosen because it is a rich, nutritious food system containing a range of food components including meat, dairy and vegetable.
# (§2) Ingredients were labelled as: chicken stock (water, duck fat, chicken, salt, flavourings, yeast extracts, pork gelatine, glucose syrup, vegetable concentrate, milk protein, sugar, malto-dextrin, vegetable oil, citric acid, lactose, chicken fat), ilk, chicken (9%), cream (8%), onion, potato, vegetable oil, modified maize starch, wheat flour, lemon juice, salt, white pepper. pH 5.912. Protein: 3.3%; carbohydrate: 4.7%; fat: 7.2%; fibre: 0.2%; sodium: 0.1%
# (§3) For the test the soup was mixed 2:1 in water (to facilitate sampling and mixing) and sterilised by autoclaving at 121° C. for 15 minutes. For each experiment the pH of the soup was recorded; this was between pH 5.79-5.88.
# (§4) For TCS010521/8 (incubated at 8° C.), samples were prepared in 27.8 g quantities. 1.5 g of an APP stock solution was added, and the tests inoculated with 0.3 ml of a suitably diluted cell or spore suspension to give a final inoculum of ca. 10^3 cfu/g. APP was tested at 0, 500 and 1000 ppm, and batch number APP20010213 (at 169 mg/ml) was used. The tests were sampled by viable count and then incubated at 8° C. and tested on a twice-weekly basis.
# L. monocytogenes 272 = experiment: Chicken soup trial at 8° C.; format: cell-based, Listeria monocytogenes; details: chicken soup at 8° C.
# From the text: as §1, §2, §3
# For TCS010412/8 (which was incubated at 8° C.), APP batch number APP20010213 (concentration 169 mg APP/ml) was used to prepare tests containing 0, 2000 or 4000 ppm APP. 5 g of filter-sterilised APP stock solution was added to 94 g of soup, mixed and then 1 ml of a diluted inoculum suspension (cells or spores as appropriate) was added to give a test inoculum level of 10^3 cfu/g. The soup mixture was shaken vigorously to ensure homogeneous distribution of the APP and micro-organisms. The tests were tested by viable count and then incubated at 8° C. and tested on a twice-weekly basis.
# as §4
# B. cereus 204 = experiment: Test in cooked minced chicken slurry; format: cell-based, Bacillus cereus; details: 2000 ppm; minced chicken slurry at 8° C., pH 6.42, TCC010704
# Description: 1 kg of minced chicken (mainly lean meat) was purchased from the local butcher. This was mixed with 1 litre of BHI, mixed and dispensed as 100 g samples prior to autoclaving. When still warm, the meat was re-mixed thoroughly. When cooked, the meat was inoculated with 1 ml of 10^5 spores or cells (from an overnight broth), and re-mixed. The samples were then divided into 3×25 g portions, to which 0.5 ml of filter-sterilised APP20010215 was added (as 5% or 10% stock solutions) or water. An initial viable count was taken, and the samples then incubated at 8° C. and tested twice weekly. The pH of the chicken slurry was 6.42.
# Ps. fluorescens = experiment: Test in milk; format: cell-based, Pseudomonas fluorescens; details: for Control for: 2000 ppm, TMGB010605
# Description: (§5) 8.9 ml samples of UHT milk containing 0.5% glucose and the indicator bromocresol purple (0.01%) were prepared and sterilised by autoclaving. The pH before APP addition was pH 6.65. Appropriate stock solutions of APP batch number APP20010215 (at 138 mg/ml) were prepared and filter sterilised. 1 ml of each was added to the milk to prepare tests containing 0, 1000 and 2000 ppm APP. Tests were then inoculated with 100 μl of diluted overnight broth cultures or spore suspensions to give a final inoculum level of ca. 10^3 cfu/ml. These and uninoculated tests were incubated at 20 and 8° C. and examined daily for visible changes compared to uninoculated control.
# Br. thermosphacta = experiment: Test in milk; format: cell-based, Brochothrix thermosphacta; details: 2000 ppm, TMGB010605
# Description: as §5
# L monocytogenes S23 = experiment: Chicken soup trial at 8° C.; format: cell-based, Listeria monocytogenes; details: chicken soup at 8° C., TCSM010521, APP215
# From the text: as §1, §2, §3, §4
# S. cerevisiae ATCC9763 = experiment: Bioscreen growth inhibition test; format: cell-based, Saccharomyces cerevisiae; details: APP 213, BS010420, 72 h/25° C.
# Description: (§6) For broth cultures and Bioscreen testing most bacteria were grown in Brain Heart Infusion (BHI, Oxoid, pH 7.4). Lactobacillus sake A10 was grown in de Man, Rogosa, Sharpe medium ([…], Oxoid). Yeasts were grown in Sabouraud Liquid medium (SLM, Oxoid). Most bacteria were cultured at 30° C. Lactic acid bacteria were grown on solid medium in enriched CO2 atmosphere. Clostridium species were grown in Reinforced Clostridial Medium (RCM) at 37° C. anaerobically. Brochothrix thermosphacta fungi and yeasts were grown at 25° C. Fungi were cultured on Malt Extract Agar (MEA, Oxoid).
# (§7) An automated Microbiology Reader Bioscreen C was used to measure growth curves of the strains in the presence and absence of APP. The Bioscreen C measures the development of turbidity (i.e. growth) kinetically by vertical photometry in 200 wells of a honeycomb microtitre plate, simultaneously. The system consists of a Bioscreen C analyser, which is an incubator and measurement unit, integrated with a PC, software (BioLink v 5.30), printer and a ‘Honeycomb 2’ cuvette multiwell plate. Growth curve data can be analysed within the BioLink software or exported to programs such as Excel.
# (§8) Broth culture media were dispensed in 270 μl volumes into the wells as directed. Serial dilutions of a filter-sterilised APP stock solution were then dispensed into the same wells, as appropriate. The wells were inoculated with 30 μl of an appropriately diluted overnight broth culture or spore suspension, to give a final inoculum level of […]. The tests were incubated in the Bioscreen C for either 24 h at 30° C., or 72 h at 25° C. (depending on the micro-organism under investigation) with readings taken every 20 minutes after the trays were shaken. After the incubation period was complete the data were exported to Excel for analysis.
# S cerevisiae H78 = experiment: Bioscreen growth inhibition test; format: cell-based, Saccharomyces cerevisiae; details: APP 213, BS010420, 72 h/25° C.
# Description: as §6, §7, §8
# [1] = 2000 ppm, TCS010412, APP20010213
# [2] = 4000 ppm, TCS010412, APP20010213
compound,measurement,setting,value
"O=C1CC(CO)OC=C1O (stereo not drawn) [APP, Ascopyrone P]",Effect on growth,Ps. fluorescens 327; 500 ppm,Little effect with 500 ppm
same,Counts undetectable,Ps. fluorescens 327; 1000 ppm,At 1000 ppm counts undetectable >7 d
same,Total inhibition for,Ps. fluorescens 327; 1000 ppm,Total inhibition by 1000 ppm for >27 days.
same,Effect on growth,"L. monocytogenes 272; 500 ppm, TCSM010521, APP215",No effect with 500 ppm
same,Effect on growth,"L. monocytogenes 272; 1000 ppm, TCSM010521, APP215",No total inhibition
same,Effect on growth rate,"L. monocytogenes 272; 1000 ppm, TCSM010521, APP215",slight reduction
same,Counts reach,L. monocytogenes 272; [1],Counts reach <105 with 2000 ppm.
same,Counts undetectable after,L. monocytogenes 272; [1],Counts undetectable after ca 50 days at 2000 ppm
same,Counts undetectable after,L. monocytogenes 272; [2],Counts undetectable after 20 days at 4000 ppm
same,Total inhibition for,L. monocytogenes 272; [2],Total inhibition by 4000 ppm for >60 days.
same,Effect on growth,B. cereus 204,Partial inhibition by 2000 ppm
same,Control for,Ps. fluorescens; milk at 8° C.,> 7 days
same,Control for,Ps. fluorescens; milk at 20° C.,2 to 3 days
same,Total inhibition (effect on growth of target organism by 2000 ppm APP),Ps. fluorescens; Milk at 8° C. pH 6.65,Ps. fluorescens
same,Partial inhibition (effect on growth of target organism by 2000 ppm APP),Ps. fluorescens; Milk at 20° C. pH 6.65,Ps. fluorescens
same,Control for,Br. thermosphacta; milk at 8° C.,1 days
same,Control of growth,Br. thermosphacta; milk at 20° C.,No control observed
same,Effect on growth rate,L monocytogenes S23; 500 ppm,Slight reduction of growth rate with 500 and 1000 ppm
same,Effect on growth,L monocytogenes S23; 1000 ppm,No total inhibition by 1000 ppm
same,Effect on growth rate,L monocytogenes S23; 1000 ppm,Slight reduction of growth rate with 500 and 1000 ppm
same,APP level causing significant inhibition,S. cerevisiae ATCC9763,Enhanced growth
same,APP level causing total inhibition,S. cerevisiae ATCC9763,>4000
same,APP level causing significant inhibition,S cerevisiae H78,4000
same,APP level causing total inhibition,S cerevisiae H78,>4000
